Measured values from patent publication US7404948B2, “Peptidic conjugates for alopecia prevention and treatment” (Institut Europeen de Biologie Cellulaire, priority 2003, dated 2008).
Non-standard residues stand in square brackets, D forms with d. hPhe = N[C@@H](CCc1ccccc1)C(=O)O

Test system: anagen-phase mouse vibrissae hair follicles
Assay: Growth of mouse vibrissae in vitro (hair follicle culture, Philpott technique)
Type: cell-based
Set-up: unit not given here
Settings: peptide 10^−7 M, A is acetic acid
From the text: The Effects of Various Peptides on the Growth of Mouse Vibrissae In Vitro
The growth of the hair shaft of these hair follicles was followed for several days (Day 0 to Day 4). The results are reported in the table below for peptides 1- and 2-described above, for which A is acetic acid.

| Substance | growth of the hair shaft (Day 0) | growth of the hair shaft (Day 1) | growth of the hair shaft (Day 2) | growth of the hair shaft (Day 3) | growth of the hair shaft (Day 4) |
| --- | --- | --- | --- | --- | --- |
| A-Arg-Lys-Asp-Val-DHomoPhe-NH2 [Peptide 1-] | 0.00 | 0.90 | 1.38 | 1.86 | 1.87 |
| Ac-Arg-Lys-Asp-Val-HomoPhe-NH2 (Ac-RKDV[hPhe]-NH2; also: acetate salt) [Peptide 2-] | 0.00 | 0.83 | 1.46 | 1.62 | 1.62 |
